Results: publication PMC11912224, “A general approach for activity-based protein profiling of oxidoreductases with redox-differentiated diarylhalonium warheads” (Chemical Science, 2025)

Tests used:
[1] = molecular target: T1, retinol dehydrogenase RDH7 (Mus musculus, UniProt O88451); assay: covalent labelling, streptavidin enrichment, LC-MS/MS; conditions: 30 uM probe, 1 h, mouse liver pieces
T1 construct: native, in intact mouse liver pieces
T1 sequence (O88451 1-316): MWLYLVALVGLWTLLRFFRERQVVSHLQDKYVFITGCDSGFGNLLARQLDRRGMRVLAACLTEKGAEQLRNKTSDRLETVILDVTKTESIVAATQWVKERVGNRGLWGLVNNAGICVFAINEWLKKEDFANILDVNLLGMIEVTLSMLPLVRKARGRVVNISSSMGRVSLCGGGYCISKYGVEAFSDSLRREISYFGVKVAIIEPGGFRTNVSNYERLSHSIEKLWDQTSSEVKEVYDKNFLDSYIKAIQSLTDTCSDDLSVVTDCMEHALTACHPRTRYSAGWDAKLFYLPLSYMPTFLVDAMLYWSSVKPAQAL

[2] = molecular target: T2, retinol dehydrogenase RDH16 (Mus musculus, UniProt O54909); assay: as above; conditions: 30 uM probe, 1 h, mouse liver pieces
T2 construct: native, in intact mouse liver pieces
T2 sequence (O54909 1-317): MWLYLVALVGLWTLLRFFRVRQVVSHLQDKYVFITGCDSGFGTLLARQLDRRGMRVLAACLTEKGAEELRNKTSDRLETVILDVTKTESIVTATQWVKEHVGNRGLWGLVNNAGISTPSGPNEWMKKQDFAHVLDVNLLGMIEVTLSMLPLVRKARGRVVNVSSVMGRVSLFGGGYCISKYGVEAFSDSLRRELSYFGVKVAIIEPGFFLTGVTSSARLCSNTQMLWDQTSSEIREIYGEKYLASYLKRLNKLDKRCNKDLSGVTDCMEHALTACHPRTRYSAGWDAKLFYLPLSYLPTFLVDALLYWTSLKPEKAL

[3] = molecular target: T3, CHO (choline oxidase) (Glutamicibacter nicotianae, UniProt A0ABQ0RMK5); assay: activity-based labelling, in-gel fluorescence; format: binding; conditions: covalent; 30 uM probe, 1 h
T3 construct: gene ANI01nite_22550; recombinant; FAD enzyme; details not in main text
T3 sequence (A0ABQ0RMK5 1-523): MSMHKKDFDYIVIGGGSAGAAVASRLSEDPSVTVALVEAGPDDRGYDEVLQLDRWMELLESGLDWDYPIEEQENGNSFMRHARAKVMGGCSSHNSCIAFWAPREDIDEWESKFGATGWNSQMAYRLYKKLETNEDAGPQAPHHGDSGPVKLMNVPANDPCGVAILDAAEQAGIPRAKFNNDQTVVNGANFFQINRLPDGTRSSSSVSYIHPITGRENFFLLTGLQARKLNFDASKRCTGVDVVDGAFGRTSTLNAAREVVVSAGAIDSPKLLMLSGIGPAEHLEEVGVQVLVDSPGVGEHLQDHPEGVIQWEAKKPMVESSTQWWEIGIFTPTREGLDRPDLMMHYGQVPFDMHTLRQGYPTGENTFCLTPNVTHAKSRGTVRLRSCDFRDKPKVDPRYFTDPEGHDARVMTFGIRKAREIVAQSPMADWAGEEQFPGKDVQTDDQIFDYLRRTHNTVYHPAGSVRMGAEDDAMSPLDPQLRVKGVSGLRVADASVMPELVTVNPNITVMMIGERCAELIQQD

[4] = molecular target: T4, heme oxygenase 2 (HMOX2) (Mus musculus, UniProt O70252); assay: covalent labelling, streptavidin enrichment, LC-MS/MS; conditions: 30 uM probe, 1 h, mouse liver pieces
T4 construct: native, in intact mouse liver pieces
T4 sequence (O70252 2-315): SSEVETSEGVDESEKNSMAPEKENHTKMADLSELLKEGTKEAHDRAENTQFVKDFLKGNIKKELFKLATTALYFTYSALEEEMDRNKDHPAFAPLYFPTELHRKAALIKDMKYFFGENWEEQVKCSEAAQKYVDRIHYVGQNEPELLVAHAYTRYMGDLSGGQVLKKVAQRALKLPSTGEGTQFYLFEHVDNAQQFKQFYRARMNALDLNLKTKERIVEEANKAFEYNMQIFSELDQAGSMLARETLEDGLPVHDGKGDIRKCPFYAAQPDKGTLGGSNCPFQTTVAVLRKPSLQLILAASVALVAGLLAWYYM

[5] = molecular target: T5, CYP27A1 (sterol-26-hydroxylase) (Mus musculus, UniProt Q9DBG1); assay: as above; conditions: 30 uM probe, 1 h, mouse liver pieces
T5 construct: native, in intact mouse liver pieces
T5 sequence (Q9DBG1 33-533): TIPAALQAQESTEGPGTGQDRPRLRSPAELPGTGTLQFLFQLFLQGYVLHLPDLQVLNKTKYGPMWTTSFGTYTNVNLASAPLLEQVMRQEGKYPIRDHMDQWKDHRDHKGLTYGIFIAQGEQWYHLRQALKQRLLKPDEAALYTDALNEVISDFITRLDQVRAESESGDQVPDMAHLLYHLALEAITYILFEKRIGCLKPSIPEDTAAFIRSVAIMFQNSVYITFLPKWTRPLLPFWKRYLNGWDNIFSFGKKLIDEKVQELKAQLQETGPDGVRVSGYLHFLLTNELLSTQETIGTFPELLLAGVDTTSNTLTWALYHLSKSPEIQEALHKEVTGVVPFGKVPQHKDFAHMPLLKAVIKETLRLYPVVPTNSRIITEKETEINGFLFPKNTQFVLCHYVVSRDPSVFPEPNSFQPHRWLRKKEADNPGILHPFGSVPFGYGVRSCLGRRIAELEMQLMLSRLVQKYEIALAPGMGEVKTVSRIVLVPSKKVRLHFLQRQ

[6] = molecular target: T6, CYP3A25 (Mus musculus, UniProt O09158); assay: as above; conditions: 30 uM probe, 1 h, mouse liver pieces
T6 construct: native, in intact mouse liver pieces
T6 sequence (O09158 1-503): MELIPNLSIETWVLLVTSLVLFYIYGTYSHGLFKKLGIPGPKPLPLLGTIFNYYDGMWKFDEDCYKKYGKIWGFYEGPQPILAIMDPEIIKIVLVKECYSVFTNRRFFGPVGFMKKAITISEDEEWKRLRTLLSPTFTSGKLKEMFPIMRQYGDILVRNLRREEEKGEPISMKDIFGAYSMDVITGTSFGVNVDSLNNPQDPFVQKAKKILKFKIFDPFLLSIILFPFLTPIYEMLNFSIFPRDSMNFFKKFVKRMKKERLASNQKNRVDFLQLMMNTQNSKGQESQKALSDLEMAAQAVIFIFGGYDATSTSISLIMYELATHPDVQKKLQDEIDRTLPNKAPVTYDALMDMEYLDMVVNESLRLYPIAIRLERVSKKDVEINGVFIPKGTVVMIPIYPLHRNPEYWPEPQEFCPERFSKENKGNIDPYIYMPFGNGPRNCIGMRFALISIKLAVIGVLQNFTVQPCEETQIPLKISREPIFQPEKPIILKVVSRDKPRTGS

SMILES: [N-]=[N+]=NCCCCCCCCCCNC(=O)c1ccc([I+]c2ccccc2)cc1 [3aa, diphenyliodonium probe 3aa]
- covalent labelling, streptavidin enrichment, LC-MS/MS [1]: RDH7 and RDH16 were found to be labeled by probe 3aa very well
- covalent labelling, streptavidin enrichment, LC-MS/MS [2]: RDH7 and RDH16 were found to be labeled by probe 3aa very well
- activity-based labelling, in-gel fluorescence [3]: led to the labeling of several of the tested oxidoreductases
- covalent labelling, streptavidin enrichment, LC-MS/MS [4]: HMOX2 was significantly enriched by diaryliodonium probes 3aa, 3ca, and 3da
- covalent labelling, streptavidin enrichment, LC-MS/MS [5]: cytochrome P450 monooxygenases (CYP3A25, CYP27A1)
- covalent labelling, streptavidin enrichment, LC-MS/MS [6]: cytochrome P450 monooxygenases (CYP3A25, CYP27A1)
